Assay results taken from patent US20120058133A1, “INHIBITION OF TRNA SYNTHETASES AND THERAPEUTIC APPLICATIONS THEREOF” (President and Fellows of Harvard College, priority 2009, published 2012).
Read-outs that look alike come from different tables or passages of the source.

Key:
Format in all cases: cell-based, mouse
[1] = test system: murine CD4+ CD25− T cells; assay: Th17 differentiation of activated CD4+ CD25− T cells (TGFβ plus IL-6; IL-17+ IFNγ− cells); settings: for rescue of HF-inhibited Th17 differentiation by added amino acids: 1 mM amino acids; for IC50: Mus musculus, T-cell
Procedure: (§1) Purified CD4^+ CD25^− T cells were activated in vitro as previously described (Djuretic et al., Nat. Immunol. 8:145, 2007) using 0.3 μg/ml hamster anti-mouse CD3 (clone 145-2C11) (ATCC—Manassas, Va.) and 0.5 μg/ml hamster anti-mouse CD28 (BD Pharmingen—San Jose, Calif.). Activated cell cultures were differentiated using the following combinations of cytokines and antibodies: iTreg-recombinant human TGFβ1 (3 ng/ml—R&D systems, Minneapolis, Minn.), Th17-TGFβ1 (3 ng/ml) plus recombinant mouse IL-6 (30 ng/ml—R&D systems). Th1 and Th2 differentiation was performed as previously described (Djuretic et al., Nat. Immunol. 8:145, 2007). Human IL-2 supernatant (National Cancer Institute) was used in culture at 0.01 U/ml and was added at 48 hours-post activation when T cells were split into tissue culture wells lacking CD3 and CD28 antibodies, with the exception of Th17 cultures that were maintained in the absence of exogenous IL-2. CD8^+ T cells were activated with 1 μg/ml anti-CD3 and 1 μg/ml anti-CD28 and were expanded in 0.1 U/ml IL-2 until day 6 post activation. CD43-depleted B cells were activated in vitro by culturing with 25 μg/ml LPS (Sigma—St. Louis, Mo.) for 3-4 days in the presence or absence of TGFβ. All reagents (see below) were added at the time of T cell activation and again at 48 hours post activation unless indicated otherwise. For some experiments, purified CD4^+ CD25^− T cells, CD8^+ T cells or B cells were labeled with 1 μM CFSE (Invitrogen) prior to activation in accordance with manufacturer's instructions. Human T cell activation was performed by plating purified monocytes in a 96-well flat bottom plate at a concentration of 2×10^4 cells per well in complete medium overnight. 10^5 purified human memory T cells were added to monocyte cultures in the presence of soluble anti-CD3/anti-CD28 beads (Dynabeads, Invitrogen). T cells were expanded in the presence HF or MAZ1310 for up to 6 days.
MAZ1310 (Kamberov, Ph.D. Dissertation, Harvard University, 2008) was generated by chemical derivatization of halofuginone and was used at equal concentrations as a negative control. HF and MAZ1310 were prepared as 100 mM stock solutions in DMSO and diluted to the indicated concentrations. SB-431542 (Inman et al., Mol. Pharmacol. 62:65, 2002) (Tocris bioscience—Ellisville, Mo.) was prepared as a 10 mM stock solution in DMSO and was used in culture at 10 μM. L-tryptophanol was prepared as a 20 mM stock solution in 0.1 M NaOH, pH 7.4 and was used at 0.2 mM. For amino acid starvation experiments, T cells were activated and differentiated as above in D-MEM medium without L-cysteine and L-methionine (Invitrogen—Carlsbad, Calif.), or D-MEM medium without L-leucine. Stocks containing 20 mM L-cysteine (Sigma—St. Louis, Mo.) plus 10 mM L-methionine (Sigma), or 400 mM L-leucine (Sigma) were prepared in ddH2O, pH 1.0 and were added to medium at the indicated concentrations.
(§2) For detection of intracellular cytokines in murine cells, cultured T or B cells were stimulated with 10 nM PMA (Sigma) and […] (Sigma) for 4-5 hours in the presence of 10 mM brefeldin A (Sigma). Stimulated cells were harvested, washed with PBS and fixed with PBS plus 4% paraformaldehyde at room temperature for 20 minutes. Cells were then washed with PBS, permeabilized with PBS supplemented with 1% BSA and 0.5% saponin (Sigma) at room temperature for 10 minutes before cytokine-specific antibodies were added and incubated with cells for an additional 20 minutes at room temperature.

[2] = test system: murine CD4+ CD25− T cells, CD8+ T cells, B cells; assay: T and B cell activation, proliferation, cytokine production and Th1/Th2/iTreg differentiation
Procedure: FIG. 2A, Left, is a graph showing dose response analyses performed on activated carboxyfluorescein succinimidyl ester (CFSE)-labeled CD4^+CD25^− T cells in the presence of DMSO, 40 nM MAZ1310, or increasing concentrations of halofuginone (HF) (1.25-40 nM). CFSE dilution and cell surface CD25 expression were determined 48 hours after activation. Intracellular cytokine production was determined on day 4 or 5 following restimulation with phorbol myristate acetate (PMA) and ionomycin. […] FIG. 2A, Right is a graph showing dose-response analyses of HF effects on CD8^+ T cell or B cell function. Cells were activated in the presence of DMSO, 40 nM MAZ1310, or increasing concentrations of HF (1.25-40 nM). CFSE dilution, cell surface CD25 expression, and intracellular cytokine production were determined as above 2-5 days after activation.
At approximately 10-fold higher concentrations (>20 nM), HF induced a general inhibition of T and B cell activation, proliferation, and effector function (FIG. 2A, 2B).
as §1
Cytokines secreted into media supernatant were measured using the mouse Th1/Th2 cytometric bead array (CBA—BD Pharmingen) in accordance with manufacturers instructions. Briefly, CD4+ CD25− T cells were activated in anti-CD3/anti-CD28-coated tissue culture wells (see above) and supernatants were collected at the indicated times.
as §2, with “temperature. […]” for “temperature.”

Xbp-1 splicing = assay: ER stress / unfolded protein response (Xbp-1 splicing) in T cells; settings: for Xbp-1 splicing: TCR activation 4 hours, 1 μg/ml tunicamycin, 10 nM HF
Procedure: FIG. 5. […] FIG. 5A depicts western blot and Xbp1 splicing analysis of CD4^+ CD25^− T cells left unstimulated, or activated through the TCR for 4 hours in complete medium (complete—200 μM Cys/100 μM Met), medium lacking Cys/Met (−Cys/Met) or complete medium containing 1 μg/ml tunicamycin, 10 nM HF or 10 nM MAZ1310. Western blotting was performed on whole cell extracts with the indicated antibodies. Xbp-1 splicing assay was performed on cDNA synthesized from T cell cultures.

[3] = low concentrations of HF (1-10 nM)
[4] = low concentrations of tunicamycin

## O=C(CC1NCCCC1O)Cn1cnc2cc(Br)c(Cl)cc2c1=O (racemic) [HF, halofuginone]
[1]
  IL-17 expression with IFNγ and IL-4 blocked by neutralizing antibodies: reduced IL-17 expression
  Th17 differentiation in T cells transduced with RORγt-expressing vs empty retroviruses: inhibited Th17 differentiation as effectively
[1]; 5 nM, 10 nM HF
  IL-17 expression in cells with equivalent number of cell divisions (CFSE dilution): inhibited IL-17 expression in a dose-dependent manner
[1]; 10 nM HF
  IL-17 expression in T cells lacking Foxp3: strongly repressed IL-17 expression
  Th17 differentiation of T cells expressing STAT3C: remained capable of differentiating into Th17 cells
  upregulation of RORγt or RORα during Th17 differentiation: did not interfere
  rescue of HF-inhibited Th17 differentiation by added amino acids: only proline rescued Th17 differentiation
[1]; 10 nM HF added at times after activation
  time of HF addition for inhibition of IL-17 expression: most pronounced when HF was added during a 12-hour window at the start of the culture period
[1]; 10 nM HF, listed as halofuginone
  rescue of HF-inhibited Th17 differentiation by added amino acids: Proline, and no other added amino acid, rescues the inhibition of Th17 differentiation
[1]; 10 nM HF, day 3
  Foxp3 expression in T cells differentiated with TGFβ plus IL-6: enhanced Foxp3 expression
[1]; 10 nM, 4 days, Th17 conditions
  expression of IL-17 and IL-17f mRNA: impaired
[1]; 96 h, restimulation on day 4-5, read-out: IC50 for Th17 differentiation (percentage of IL-17+ IFNγ− cells)
  IC50: 3.6 nM
[1]; read-out: concentration giving 50% inhibition of Th17 cell development
  IC50: ~3 nM
[1]; TAT-Cre treated, TGFβ plus IL-6
  Th17 differentiation of cells expressing YFP or no transgene: strongly impaired Th17 differentiation
[1]; [3]
  IL-17 production: strongly reduced
[2]
  concentration inducing general inhibition of T and B cell activation, proliferation, and effector function: > 20 nM
[2]; [3]
  CD25 upregulation: did not affect
  T cell proliferation: did not affect
  production of IL-2, TNF, or IFNγ: did not affect
[2]; low-dose HF
  Th1, Th2 or iTreg differentiation (IFNγ, IL-4, or Foxp3 expression): failed to modulate
Xbp-1 splicing
  expression of hallmark ER stress response genes: did not induce
  Xbp-1 splicing: without promoting Xbp-1 splicing

## tunicamycin
[1]; [4]
  IL-17 expression in T cells: little influence on IL-17 expression
[2]; [4]
  Th1 and Th2 differentiation: preferentially impaired Th1 and Th2 differentiation
Xbp-1 splicing
  Xbp-1 splicing: together with Xbp-1 splicing
